Measured values from PubChem BioAssay (NCI).
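Assay format: 96-well plates, 48-hour exposure. GI50 marks 50% less growth. TGI: concentration producing complete growth inhibition.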

Tests used:
Test in all cases: growth of human tumour cells (NCI), 48 h
RXF 393 renal = tested on: RXF 393 renal
HCT-15 colon = tested on: HCT-15 colon
HOP-62 NSCLC = tested on: HOP-62 NSCLC
PC-3 prostate = tested on: PC-3 prostate
T-47D breast = tested on: T-47D breast
SK-OV-3 ovarian = tested on: SK-OV-3 ovarian
HCC-2998 colon = tested on: HCC-2998 colon
HT29 colon = tested on: HT29 colon
SK-MEL-5 melanoma = tested on: SK-MEL-5 melanoma
CCRF-CEM leukemia = tested on: CCRF-CEM leukemia
SK-MEL-2 melanoma = tested on: SK-MEL-2 melanoma
COLO 205 colon = tested on: COLO 205 colon
786-0 renal = tested on: 786-0 renal
NCI-H460 lung = tested on: NCI-H460 lung
MDA-MB-435 = tested on: MDA-MB-435
UO-31 renal = tested on: UO-31 renal
HS 578T breast = tested on: HS 578T breast
TK-10 renal = tested on: TK-10 renal
OVCAR-3 ovarian = tested on: OVCAR-3 ovarian
NCI-H226 lung = tested on: NCI-H226 lung
ACHN renal = tested on: ACHN renal
A498 renal = tested on: A498 renal
LOX IMVI melanoma = tested on: LOX IMVI melanoma
BT-549 breast = tested on: BT-549 breast
EKVX NSCLC = tested on: EKVX NSCLC
NCI/ADR-RES ovarian = tested on: NCI/ADR-RES ovarian
NCI-H23 lung = tested on: NCI-H23 lung
SN12C renal = tested on: SN12C renal
HCT-116 colon = tested on: HCT-116 colon
NCI-H522 lung = tested on: NCI-H522 lung
U251 CNS = tested on: U251 CNS
OVCAR-8 ovarian = tested on: OVCAR-8 ovarian
MOLT-4 leukemia = tested on: MOLT-4 leukemia
SNB-19 CNS = tested on: SNB-19 CNS
HL-60(TB) leukemia = tested on: HL-60(TB) leukemia
UACC-257 melanoma = tested on: UACC-257 melanoma
MDA-MB-231 breast = tested on: MDA-MB-231 breast
IGROV1 ovarian = tested on: IGROV1 ovarian
OVCAR-4 ovarian = tested on: OVCAR-4 ovarian
SF-295 CNS = tested on: SF-295 CNS
SW-620 colon = tested on: SW-620 colon
SF-268 CNS = tested on: SF-268 CNS
SK-MEL-28 melanoma = tested on: SK-MEL-28 melanoma
HOP-92 NSCLC = tested on: HOP-92 NSCLC
SNB-75 CNS = tested on: SNB-75 CNS
A549 NSCLC = tested on: A549 NSCLC
M14 melanoma = tested on: M14 melanoma
RPMI-8226 leukemia = tested on: RPMI-8226 leukemia
KM12 colon = tested on: KM12 colon
SF-539 CNS = tested on: SF-539 CNS
SR leukemia = tested on: SR leukemia
MALME-3M melanoma = tested on: MALME-3M melanoma
MCF7 breast = tested on: MCF7 breast
DU-145 prostate = tested on: DU-145 prostate
UACC-62 melanoma = tested on: UACC-62 melanoma
CAKI-1 renal = tested on: CAKI-1 renal
OVCAR-5 ovarian = tested on: OVCAR-5 ovarian

SMILES: C=C1C(=O)O[C@H]2[C@H]1CC/C(Cn1cc(CNC(=O)c3cc4ccccc4[nH]3)nn1)=C\CC[C@@]1(C)O[C@@H]21
- GI50 (RXF 393 renal): 2.16 µM
- TGI (RXF 393 renal): 4.28 µM
- GI50 (HCT-15 colon): 10.2 µM
- TGI (HCT-15 colon): 27.4 µM
- GI50 (HOP-62 NSCLC): 13.3 µM
- TGI (HOP-62 NSCLC): 31.3 µM
- GI50 (PC-3 prostate): 1.88 µM
- TGI (PC-3 prostate): 4.79 µM
- GI50 (T-47D breast): 3.55 µM
- TGI (T-47D breast): 20.4 µM
- GI50 (SK-OV-3 ovarian): 50.4 µM
- TGI (SK-OV-3 ovarian): > 100 µM
- GI50 (HCC-2998 colon): 14 µM
- TGI (HCC-2998 colon): 31.5 µM
- GI50 (HT29 colon): 2.85 µM
- TGI (HT29 colon): 10.1 µM
- GI50 (SK-MEL-5 melanoma): 8.1 µM
- TGI (SK-MEL-5 melanoma): 23.4 µM
- GI50 (CCRF-CEM leukemia): 0.527 µM
- TGI (CCRF-CEM leukemia): 5.21 µM
- GI50 (SK-MEL-2 melanoma): 6.43 µM
- TGI (SK-MEL-2 melanoma): 23 µM
- GI50 (COLO 205 colon): 2.13 µM
- TGI (COLO 205 colon): 4.48 µM
- GI50 (786-0 renal): 2.96 µM
- TGI (786-0 renal): 9.61 µM
- GI50 (NCI-H460 lung): 20.1 µM
- TGI (NCI-H460 lung): 41 µM
- GI50 (MDA-MB-435): 2.82 µM
- TGI (MDA-MB-435): 9.7 µM
- GI50 (UO-31 renal): 10.4 µM
- TGI (UO-31 renal): 22.1 µM
- GI50 (HS 578T breast): 19 µM
- TGI (HS 578T breast): 55.4 µM
- GI50 (TK-10 renal): 4.41 µM
- TGI (TK-10 renal): 15.2 µM
- GI50 (OVCAR-3 ovarian): 2.12 µM
- TGI (OVCAR-3 ovarian): 5.63 µM
- GI50 (NCI-H226 lung): 2.57 µM
- TGI (NCI-H226 lung): 6.15 µM
- GI50 (ACHN renal): 4.73 µM
- TGI (ACHN renal): 17.2 µM
- GI50 (A498 renal): 18.9 µM
- TGI (A498 renal): 36 µM
- GI50 (LOX IMVI melanoma): 1.82 µM
- TGI (LOX IMVI melanoma): 4.06 µM
- GI50 (BT-549 breast): 4.09 µM
- TGI (BT-549 breast): 16.5 µM
- GI50 (EKVX NSCLC): 13.2 µM
- TGI (EKVX NSCLC): 30.2 µM
- GI50 (NCI/ADR-RES ovarian): 69.3 µM
- TGI (NCI/ADR-RES ovarian): > 100 µM
- GI50 (NCI-H23 lung): 14.3 µM
- TGI (NCI-H23 lung): 34.5 µM
- GI50 (SN12C renal): 1.97 µM
- TGI (SN12C renal): 4.66 µM
- GI50 (HCT-116 colon): 1.59 µM
- TGI (HCT-116 colon): 3.56 µM
- GI50 (NCI-H522 lung): 0.921 µM
- TGI (NCI-H522 lung): 2.84 µM
- GI50 (U251 CNS): 8.24 µM
- TGI (U251 CNS): 21.8 µM
- GI50 (OVCAR-8 ovarian): 4.69 µM
- TGI (OVCAR-8 ovarian): 17.2 µM
- GI50 (MOLT-4 leukemia): 2.71 µM
- TGI (MOLT-4 leukemia): 7.15 µM
- GI50 (SNB-19 CNS): 7.44 µM
- TGI (SNB-19 CNS): 20.4 µM
- GI50 (HL-60(TB) leukemia): 2.45 µM
- TGI (HL-60(TB) leukemia): 5.79 µM
- GI50 (UACC-257 melanoma): 4 µM
- TGI (UACC-257 melanoma): 16 µM
- GI50 (MDA-MB-231 breast): 1.97 µM
- TGI (MDA-MB-231 breast): 3.78 µM
- GI50 (IGROV1 ovarian): 3.24 µM
- TGI (IGROV1 ovarian): 10.6 µM
- GI50 (OVCAR-4 ovarian): 4.52 µM
- TGI (OVCAR-4 ovarian): 17.1 µM
- GI50 (SF-295 CNS): 18.9 µM
- TGI (SF-295 CNS): 39 µM
- GI50 (SW-620 colon): 1.97 µM
- TGI (SW-620 colon): 3.94 µM
- GI50 (SF-268 CNS): 7.26 µM
- TGI (SF-268 CNS): 22.5 µM
- GI50 (SK-MEL-28 melanoma): 2.18 µM
- TGI (SK-MEL-28 melanoma): 4.69 µM
- GI50 (HOP-92 NSCLC): 1.53 µM
- TGI (HOP-92 NSCLC): 3.16 µM
- GI50 (SNB-75 CNS): 10.4 µM
- TGI (SNB-75 CNS): 22.4 µM
- GI50 (A549 NSCLC): 22.1 µM
- TGI (A549 NSCLC): 46.5 µM
- GI50 (M14 melanoma): 2.09 µM
- TGI (M14 melanoma): 6.27 µM
- GI50 (RPMI-8226 leukemia): 3.37 µM
- TGI (RPMI-8226 leukemia): 9.34 µM
- GI50 (KM12 colon): 11.4 µM
- TGI (KM12 colon): 26.7 µM
- GI50 (SF-539 CNS): 2.85 µM
- TGI (SF-539 CNS): 8.65 µM
- GI50 (SR leukemia): 2.69 µM
- TGI (SR leukemia): 25.7 µM
- GI50 (MALME-3M melanoma): 1.75 µM
- TGI (MALME-3M melanoma): 3.55 µM
- GI50 (MCF7 breast): 2.94 µM
- TGI (MCF7 breast): 15.4 µM
- GI50 (DU-145 prostate): 4.07 µM
- TGI (DU-145 prostate): 15.1 µM
- GI50 (UACC-62 melanoma): 1.57 µM
- TGI (UACC-62 melanoma): 3.33 µM
- GI50 (CAKI-1 renal): 2.26 µM
- TGI (CAKI-1 renal): 12.2 µM
- GI50 (OVCAR-5 ovarian): 2.51 µM
- TGI (OVCAR-5 ovarian): 9.07 µM
